# Measured values reported in patent US10004232B2 (priority 2011, dated 2018).
# Key:
# [1] = logP determination by HPLC on reversed-phase columns (C 18), EEC Directive 79/831 Annex V.A8; format: physicochemical; conditions: for chromatographic logP: reversed-phase C18 HPLC column
# Text: Calibration takes place using unbranched alkan-2-ones (having 3 to 16 carbon atoms) whose log P values are known (log P values determined on the basis of the retention times, by linear interpolation between two successive alkanones).
# Phytophthora infestans = format: in vivo; conditions: young tomato plants, protective spray, active ingredient concentration 100 ppm, evaluation 7 days after inoculation
# Plasmopara viticola = assay: Plasmopara test (grapevine) / protective; format: in vivo; conditions: young grapevine plants, protective spray, active ingredient concentration 10 ppm, evaluation 6 days after inoculation
# Experimental: Plasmopara Test (Grapevine)/Protective
# Solvent: 24.5 parts by weight of acetone
# • 24.5 parts by weight of dimethylacetamide Emulsifier: 1 part by weight of alkylaryl polyglycol ether
# An appropriate preparation of active ingredient is prepared by mixing 1 part by weight of active ingredient with the specified amounts of solvent and emulsifier, and diluting the concentrate with water to the desired concentration.
# To test for protective activity, young plants are sprayed with the preparation of active ingredient at the specified application rate. After the spray coating has dried on, the plants are inoculated with an aqueous spore suspension of Plasmopara viticola and then spend 1 day in an incubation cabinet at about 20° C. and 100% relative atmospheric humidity. The plants are subsequently placed for 4 days in a greenhouse at about 21° C. and about 90% atmospheric humidity. The plants are then moistened and placed in an incubation cabin for 1 day.
# Evaluation takes place 6 days after inoculation. Here, 0% denotes an efficacy which corresponds to that of the control, whereas an efficacy of 100% means that no infestation is observed.
# [2] = [a] LC-MS in the acidic range, pH 2.7, 0.1% aqueous formic acid and acetonitrile
# [3] = [b] LC-MS in the neutral range, pH 7.8, 0.001 molar aqueous ammonium hydrogencarbonate and acetonitrile
structure (smiles),measurement,setting,value
C#CCOc1cc(F)c(C2CC(c3csc(C4CCN(C(=O)Cn5nc(C(F)F)cc5C(F)F)CC4)n3)=NO2)c(F)c1 (racemic) [Example I-3],LogP,[1]; [2],3.3
same,LogP,[1]; [3],3.26
same,Eff. %,Phytophthora infestans,98%
same,Eff. %,Plasmopara viticola,100%
O=C(Cn1nc(C(F)F)cc1C(F)F)N1CCC(c2nc(C3=NOC(c4c(OC/C=C\Cl)ccc(F)c4F)C3)cs2)CC1 (racemic) [Example I-6],LogP,[1]; [2],3.79
same,LogP,[1]; [3],3.71
C=C(Cl)COc1ccc(F)c(F)c1C1CC(c2csc(C3CCN(C(=O)Cn4nc(C(F)F)cc4C(F)F)CC3)n2)=NO1 (racemic) [Example I-7],LogP,[1]; [2],3.68
same,LogP,[1]; [3],3.69
same,Eff. %,Plasmopara viticola,100%
C#CCOc1ccc(F)c(F)c1C1CC(c2csc(C3CCN(C(=O)Cn4nc(C(F)F)cc4C(F)F)CC3)n2)=NO1 (racemic) [Example I-8],LogP,[1]; [2],3.3
same,LogP,[1]; [3],3.27
same,Eff. %,Plasmopara viticola,100%
O=C(Oc1cc(F)c(C2CC(c3csc(C4CCN(C(=O)Cn5nc(C(F)F)cc5C(F)F)CC4)n3)=NO2)c(F)c1)C1CC1 (racemic) [Example I-9],LogP,[1]; [2],3.53^[a]
C#CCOc1c(F)cc(F)cc1C1CC(c2csc(C3CCN(C(=O)Cn4nc(C(F)F)cc4C(F)F)CC3)n2)=NO1 (racemic) [Example I-10],LogP,[1]; [2],3.58
same,LogP,[1]; [3],3.51
C=CCOc1cc(F)c(C2CC(c3csc(C4CCN(C(=O)Cn5nc(C(F)F)cc5C(F)F)CC4)n3)=NO2)c(F)c1 (racemic) [Example I-11],LogP,[1]; [2],3.7^[a]
C#CCOc1c(F)ccc(F)c1C1CC(c2csc(C3CCN(C(=O)Cn4nc(C(F)F)cc4C(F)F)CC3)n2)=NO1 (racemic) [Example I-12],LogP,[1]; [2],3.31
same,LogP,[1]; [3],3.3
C#CCOc1cc(F)cc(F)c1C1CC(c2csc(C3CCN(C(=O)Cn4nc(C(F)F)cc4C(F)F)CC3)n2)=NO1 (racemic) [Example I-13],LogP,[1]; [2],3.32^[a]
same,Eff. %,Plasmopara viticola,100%
O=Cc1cc(F)c(C2CC(c3csc(C4CCN(C(=O)Cn5nc(C(F)F)cc5C(F)F)CC4)n3)=NO2)c(F)c1 (racemic) [Example I-14],LogP,[1]; [2],2.93
same,LogP,[1]; [3],2.87
O=C(Cn1nc(C(F)F)cc1C(F)F)N1CCC(c2nc(C3=NOC(c4c(F)cc(F)cc4OCC4CC4)C3)cs2)CC1 (racemic) [Example I-15],LogP,[1]; [2],3.81
same,LogP,[1]; [3],3.76
O=C(Oc1cc(F)cc(F)c1C1CC(c2csc(C3CCN(C(=O)Cn4nc(C(F)F)cc4C(F)F)CC3)n2)=NO1)C1CC1 (racemic) [Example I-16],LogP,[1]; [2],3.5
same,LogP,[1]; [3],3.42
C=CCOc1ccc(F)c(F)c1C1CC(c2csc(C3CCN(C(=O)Cn4nc(C(F)F)cc4C(F)F)CC3)n2)=NO1 (racemic) [Example I-17],LogP,[1]; [2],3.53
same,LogP,[1]; [3],3.56
same,Eff. %,Plasmopara viticola,100%
C=CCOc1cc(Cl)cc(Cl)c1C1CC(c2csc(C3CCN(C(=O)Cn4nc(C(F)F)cc4C(F)F)CC3)n2)=NO1 (racemic) [Example I-18],LogP,[1]; [2],4.29
same,LogP,[1]; [3],4.2
same,Eff. %,Phytophthora infestans,95%
same,Eff. %,Plasmopara viticola,96%
C=C(Cl)COc1cc(F)cc(F)c1C1CC(c2csc(C3CCN(C(=O)Cn4nc(C(F)F)cc4C(F)F)CC3)n2)=NO1 (racemic) [Example I-19],LogP,[1]; [2],3.79
same,LogP,[1]; [3],3.7
same,Eff. %,Plasmopara viticola,100%
C=CCOc1cc(F)cc(F)c1C1CC(c2csc(C3CCN(C(=O)Cn4nc(C(F)F)cc4C(F)F)CC3)n2)=NO1 (racemic) [Example I-20],LogP,[1]; [2],3.67
same,LogP,[1]; [3],3.58
same,Eff. %,Plasmopara viticola,100%
C#CCOc1cc(Cl)cc(Cl)c1C1CC(c2csc(C3CCN(C(=O)Cn4nc(C(F)F)cc4C(F)F)CC3)n2)=NO1 (racemic) [Example I-21],LogP,[1]; [2],3.94
same,LogP,[1]; [3],3.85
same,Eff. %,Phytophthora infestans,95%
same,Eff. %,Plasmopara viticola,100%
"C#CCOc1cc(C)c(C)cc1C1(C)CC(c2csc(C3CCN(C(=O)Cn4nc(C(F)F)cc4C(F)F)CC3)n2)=NO1 (stereo not drawn) [Example I-1, 2-[3,5-Bis(difluoromethyl)-1H-pyrazol-1-yl]-1-[4-(4-{5-[4,5-dimethyl-2-(prop-2-yn-1-yloxy)phenyl]-5-methyl-4,5-dihydro-1,2-oxazol-3-yl}-1,3-thiazol-2-yl)piperidin-1-yl]ethanone]",chromatographic logP,[1]; [2],4.1
same,chromatographic logP,[1]; [3],4.04
same,Eff. %,Phytophthora infestans,98%
"C#CCOc1ccc(F)c(C2CC(c3csc(C4CCN(C(=O)Cn5nc(C(F)F)cc5C(F)F)CC4)n3)=NO2)c1F (stereo not drawn) [Example I-2, 2-[3,5-Bis(difluoromethyl)-1H-pyrazol-1-yl]-1-[4-(4-{5-[2,6-difluoro-3-(prop-2-yn-1-yloxy)phenyl]-4,5-dihydro-1,2-oxazol-3-yl}-1,3-thiazol-2-yl)piperidin-1-yl]ethanone]",chromatographic logP,[1]; [2],3.26
same,chromatographic logP,[1]; [3],3.18
same,Eff. %,Phytophthora infestans,94%
same,Eff. %,Plasmopara viticola,100%
"C=CCOc1ccc(F)c(C2CC(c3csc(C4CCN(C(=O)Cn5nc(C(F)F)cc5C(F)F)CC4)n3)=NO2)c1F (stereo not drawn) [Example I-4, 1-[4-(4-{5-[3-(Allyloxy)-2,6-difluorophenyl]-4,5-dihydro-1,2-oxazol-3-yl}-1,3-thiazol-2-yl)piperidin-1-yl]-2-[3,5-bis(difluoromethyl)-1H-pyrazol-1-yl]ethanone]",chromatographic logP,[1]; [2],3.59
same,chromatographic logP,[1]; [3],3.51
same,Eff. %,Phytophthora infestans,95%
same,Eff. %,Plasmopara viticola,100%
"CS(=O)(=O)Nc1cc(F)c(C2CC(c3csc(C4CCN(C(=O)Cn5nc(C(F)F)cc5C(F)F)CC4)n3)=NO2)c(F)c1 (stereo not drawn) [Example I-5, N-(4-{3-[2-(1-{[3,5-Bis(difluoromethyl)-1H-pyrazol-1-yl]acetyl}piperidin-4-yl)-1,3-thiazol-4-yl]-4,5-dihydro-1,2-oxazol-5-yl}-3,5-difluorophenyl)methanesulphonamide]",chromatographic logP,[1]; [2],2.63
same,Eff. %,Phytophthora infestans,95%
same,Eff. %,Plasmopara viticola,96%
